# What was measured:
# [1] = system: A549; test: Cytotoxicity against human A549 cells by MTT assay; type: functional, cell-based
# [2] = system: MCF7; test: Cytotoxicity against human MCF7 cells by MTT assay; type: functional, cell-based
# [3] = system: Erythrocyte; test: Cytotoxicity against human Erythrocyte by MTT assay; type: functional, cell-based
# [4] = system: MDA-MB-231; test: Cytotoxicity against human MDA-MB-231 cells by MTT assay; type: functional, cell-based
# [5] = system: HBL; test: Cytotoxicity against human HBL cells by MTT assay; type: functional, cell-based
# [6] = system: MCF7; test: Cytotoxicity against human MCF7 cells assessed as lethal dose; type: functional; settings: read-out: LD50 (the source's name)
# [7] = system: HaCaT; test: Growth inhibition of human HaCaT cells; type: functional
# [8] = system: HepG2; test: Anticancer activity against human HepG2 cells at 50 ug/ml measured after 48 hrs relative to control; type: functional; settings: dose 50 µg/ml
# [9] = system: MDA-MB-231; test: Antiproliferative activity against human MDA-MB-231 cells assessed as reduction in tumor cell proliferation; type: functional, cell-based
# [10] = system: FaDu; test: Anticancer activity against human FaDu cells; type: functional, cell-based
# [11] = system: PC-3; test: Antiproliferative activity against human PC-3 cells assessed as inhibition of cell viability by MTT assay; type: functional, cell-based
# [12] = system: MCF7; test: Antiproliferative activity against human MCF7 cells by MTT assay; type: functional, cell-based
# [13] = system: DU-145; test: Antiproliferative activity against human DU-145 cells assessed as inhibition of cell viability by MTT assay; type: functional, cell-based
# [14] = system: MDA-MB-231; test: Antiproliferative activity against human MDA-MB-231 cells assessed as inhibition of cell viability by MTT assay; type: functional, cell-based
# [15] = system: MDA-MB-231; test: Antiproliferative activity against human MDA-MB-231 cells by MTT assay; type: functional, cell-based
# [16] = system: A549; test: Antiproliferative activity against human A549 cells assessed as cell growth inhibition; type: functional, cell-based
# [17] = system: Bel-7402; test: Antiproliferative activity against human Bel-7402 cells; type: functional, cell-based
# [18] = system: MGC-803; test: Antiproliferative activity against human MGC-803 cells assessed as cell growth inhibition; type: functional, cell-based
# [19] = system: HCT-116; test: Antiproliferative activity against human HCT-116 cells assessed as cell growth inhibition; type: functional, cell-based
# [20] = Antiproliferative activity against human Panel (10 carcinoma cell lines) cells; type: functional, cell-based
# [21] = system: PC-3; test: Anticancer activity against human PC-3 cells assessed as reduction in cell proliferation; type: functional, cell-based
# [22] = system: HOP-92; test: Anticancer activity against human HOP-92 cells assessed as reduction in cell proliferation; type: functional, cell-based
# [23] = system: A549; test: Anticancer activity against human A549 cells assessed as reduction in cell proliferation; type: functional, cell-based
# [24] = system: UO-31; test: Anticancer activity against human UO-31 cells assessed as reduction in cell proliferation; type: functional, cell-based
# [25] = system: HepG2; test: Cytotoxicity against human HepG2 cells incubated overnight by MTT assay; type: functional, cell-based
# [26] = system: MCF7; test: Cytotoxicity against human MCF7 cells incubated overnight by MTT assay; type: functional, cell-based
# [27] = system: HCT-116; test: Cytotoxicity against human HCT-116 cells incubated overnight by MTT assay; type: functional, cell-based
# [28] = system: Huh-7; test: Anticancer activity against human Huh-7 cells measured after 72 hrs by SRB assay; type: functional, cell-based; settings: Huh-7, 72 h
# [29] = system: Mahlavu; test: Anticancer activity against human Mahlavu cells measured after 72 hrs by SRB assay; type: functional, cell-based
# [30] = system: HCT-116; test: Anticancer activity against human HCT-116 cells measured after 72 hrs by SRB assay; type: functional, cell-based; settings: HCT-116, 72 h
# [31] = system: MCF7; test: Anticancer activity against human MCF7 cells measured after 72 hrs by SRB assay; type: functional, cell-based; settings: MCF7, 72 h
# [32] = system: HeLa; test: Anticancer activity against human HeLa cells assessed as inhibition of cell viability; type: functional, cell-based
# [33] = Anticancer activity against […] 3T3 cells; type: functional, cell-based; settings: NIH3T3
# [34] = system: NCI-H460; test: Growth inhibition of human NCI-H460 cells; type: functional, cell-based
# [35] = Cytotoxicity against human H357 cells; type: functional, cell-based
# [36] = system: HCT-116; test: Cytotoxicity against human HCT-116 cells assessed a reduction in cell viability; type: functional, cell-based
# [37] = system: MCF7; test: Cytotoxicity against human MCF7 cells; type: functional, cell-based
# [38] = system: MDA-MB-231; test: Cytotoxicity against human MDA-MB-231 cells; type: functional, cell-based
# [39] = Cytotoxicity against human VA13 cells incubated for 72 hrs by MTT assay; type: toxicity, cell-based; settings: VA13 (WI-38 VA13) cells
# [40] = system: A549; test: Cytotoxicity against human A549 cells incubated for 72 hrs by MTT assay; type: functional, cell-based; settings: A549, 72 h
# [41] = Cytotoxicity against HEK293T cells incubated for 72 hrs by MTT assay; type: toxicity, cell-based, HEK-293T; settings: human
# [42] = system: MCF7; test: Cytotoxicity against human MCF7 cells incubated for 72 hrs by MTT assay; type: functional, cell-based; settings: MCF7, 72 h
# [43] = system: Jurkat; test: Cytotoxicity against human Jurkat cells; type: functional, cell-based
# [44] = system: MCF7; test: Cytotoxicity against human MCF7 cells assessed as reduction in cell viability; type: functional, cell-based
# [45] = system: HeLa; test: Cytotoxicity against human HeLa cells assessed as reduction in cell viability; type: functional, cell-based
# [46] = target: T1, Androgen receptor (Homo sapiens, UniProt P10275); test: Antagonist activity at androgen receptor (unknown origin)
# [47] = target: T1, Androgen receptor; test: Antagonist activity at androgen receptor (unknown origin) assessed as inhibition constant
# [48] = system: A549; test: Anticancer activity against human A549 cells; type: functional, cell-based
# [49] = system: PC-3; test: Anticancer activity against human PC-3 cells; type: functional, cell-based
# [50] = system: K562; test: Anticancer activity against human K562 cells; type: functional, cell-based
# [51] = system: HL-60; test: Induction of mitochondrial membrane potential loss in human HL-60 cells measured after 72 hrs by TMRM dye based flow cytometric analysis; type: functional, cell-based; settings: HL-60, 72 h
# [52] = system: HL-60; test: Induction of mitochondrial membrane potential loss in human HL-60 cells measured after 72 hrs by […] based flow cytometric analysis; type: functional, cell-based; settings: HL-60, 72 h
# [53] = system: CT26; test: Anticancer activity against mouse CT26 cells at 50 ug/ml measured after 24 hrs relative to control; type: functional; settings: dose 50 µg/ml
# [54] = system: HepG2; test: Anticancer activity against human HepG2 cells assessed as inhibition of cell growth; type: functional, cell-based
# [55] = system: MCF7; test: Anticancer activity against human MCF7 cells assessed as inhibition of cell growth; type: functional, cell-based
# [56] = system: HCT-116; test: Anticancer activity against human HCT-116 cells; type: functional, cell-based
# [57] = system: HeLa; test: Anticancer activity against human HeLa cells assessed as reduction in cell proliferation; type: functional, cell-based
# [58] = system: CCRF-CEM; test: Anticancer activity against human CEM cells; type: functional, cell-based
# [59] = system: MCF7; test: Anticancer activity against human MCF7 cells assessed as reduction in cell proliferation; type: functional, cell-based
# [60] = Anticancer activity against human BJ cells assessed as reduction in cell proliferation; type: toxicity, cell-based
# [61] = system: MCF7; test: Anticancer activity against human MCF7 cells assessed as inhibition of cell proliferation; type: functional, cell-based
# [62] = system: KB; test: Anticancer activity against human KB cells assessed as inhibition of cell proliferation; type: functional, cell-based
# T1 sequence (P10275 whole entry): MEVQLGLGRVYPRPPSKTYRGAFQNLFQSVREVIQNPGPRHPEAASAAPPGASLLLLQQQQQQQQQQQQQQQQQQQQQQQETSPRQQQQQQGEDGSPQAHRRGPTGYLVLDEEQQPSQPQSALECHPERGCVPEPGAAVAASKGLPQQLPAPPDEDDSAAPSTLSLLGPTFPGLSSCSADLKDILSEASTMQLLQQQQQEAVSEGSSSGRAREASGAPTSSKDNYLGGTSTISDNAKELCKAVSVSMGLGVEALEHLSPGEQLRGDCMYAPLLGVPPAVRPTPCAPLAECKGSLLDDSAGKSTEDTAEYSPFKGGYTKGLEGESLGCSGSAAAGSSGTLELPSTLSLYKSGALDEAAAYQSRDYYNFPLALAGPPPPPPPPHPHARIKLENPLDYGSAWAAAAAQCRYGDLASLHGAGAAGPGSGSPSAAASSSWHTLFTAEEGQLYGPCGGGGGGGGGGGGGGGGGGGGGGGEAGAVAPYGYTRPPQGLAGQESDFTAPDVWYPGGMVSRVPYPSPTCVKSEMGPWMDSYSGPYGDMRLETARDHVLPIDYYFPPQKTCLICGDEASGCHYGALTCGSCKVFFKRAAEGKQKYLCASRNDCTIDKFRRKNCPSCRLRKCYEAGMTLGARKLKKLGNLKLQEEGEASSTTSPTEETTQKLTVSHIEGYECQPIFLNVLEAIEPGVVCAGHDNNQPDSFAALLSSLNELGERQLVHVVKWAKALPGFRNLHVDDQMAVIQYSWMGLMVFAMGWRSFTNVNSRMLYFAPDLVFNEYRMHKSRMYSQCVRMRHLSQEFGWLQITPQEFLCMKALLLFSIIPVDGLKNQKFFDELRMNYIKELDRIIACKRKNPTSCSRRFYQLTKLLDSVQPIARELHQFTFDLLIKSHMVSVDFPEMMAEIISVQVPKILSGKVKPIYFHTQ
compound,measurement,setting,value
Cc1ccc2c(c1)C1(CC(=O)C=NO1)C(=O)N2 (configuration not stated),IC50,[1],13.2 µM
same,IC50,[2],> 30 µM
same,IC50,[3],> 100 µM
same,IC50,[4],0.34 µM
same,IC50,[5],> 100 µM
COC1=C(Br)[C@@H](O)[C@]2(C=C1Br)CC(C(=O)NCC(O)c1cc(Br)c(OCCCNC(=O)C3=NO[C@]4(C=C(Br)C(OC)=C(Br)[C@@H]4O)C3)c(Br)c1)=NO2 (some centres not stated),CC50,[6],17 µg/mL
N#CC1=CC2(c3ccccc3NC3C=CC=CC32)N(/N=C/c2ccccc2)C1=O (configuration not stated),GI50,[7],2 µM
CCCCN1C(=O)C2(c3cc(F)ccc31)[C@@H](C(=O)OCC)[C@H](C(=O)OCC)NC2(CC(=O)OC)C(=O)OC (some centres not stated),Activity,[8],55.92%
O=C1N(C2CCCCC2)C(=O)C2(CC(c3ccccc3O)=NCCN2)N1C1CCCCC1 (configuration not stated),IC50,[9],44.6 µM
Cc1ccccc1/C=C1\CN(/C=C/c2ccccc2)C[C@]2(C1=O)[C@H](c1ccccc1C)[C@@H](Cc1ccccc1)N[C@]21C(=O)Nc2ccccc21,IC50,[10],21 µM
Clc1ccc(C2=NO[C@@]3(CCCCO3)[C@H]2Br)cc1,IC50,[11],56.7 µM
same,IC50,[12],51.2 µM
same,IC50,[13],48.1 µM
same,IC50,[14],53.1 µM
N#CC1=C(c2ccccc2)Nc2c(c(-c3cccs3)nn2-c2ccccc2)C12C(=O)Nc1ccccc12 (configuration not stated),IC50,[15],6.7 µM
O=C(C[C@@H](CC1CCCC1)C(=O)N1CC2(CC2)C[C@H]1C(=O)Nc1ccc(F)cn1)NO,IC50,[16],4.88 µM
same,IC50,[17],4.88 µM
same,IC50,[18],4.88 µM
same,IC50,[19],4.88 µM
same,IC50,[20],2 µM
Cc1ccc(/C=C2\CN(C)C[C@]3(C2=O)[C@H](c2ccc(C)cc2)CN(C)[C@]32C(=O)N(CN3CCOCC3)c3ccccc32)cc1,IC50,[21],0.831 µM
same,IC50,[22],1.4 µM
same,IC50,[23],3.59 µM
same,IC50,[24],1.77 µM
O=C(/C=C/c1ccc(Br)cc1)[C@H]1[C@H](c2ccc(Br)cc2)C2CSCN2[C@]12C(=O)Nc1cc(Br)c(Br)cc12 (some centres not stated),IC50,[25],50 µM
same,IC50,[26],2.5 µM
same,IC50,[27],2.2 µM
CCNC(=O)[C@H]1[C@H](c2ccc([N+](=O)[O-])cc2)[C@@]2(C(=O)Cc3ccccc32)[C@H](CC(C)C)N1[C@H](c1ccccc1)[C@@H](O)c1ccccc1,IC50,[28],8.2 µM
same,IC50,[29],14.9 µM
same,IC50,[30],3.9 µM
same,IC50,[31],4.8 µM
O=C(c1ccc(F)cc1)C1C(c2ccc(Cl)cc2Cl)C2CSCN2C12C(=O)Nc1ccccc12 (configuration not stated),IC50,[32],11.2 µM
same,IC50,[33],21.2 µM
COc1ccc(/C=N/N2C(=O)C(C#N)=CC23c2ccccc2NC2C=CC=CC23)cc1 (configuration not stated),IC50,[34],0.12 µM
CCOc1cccc2c1OCC1=CCC3(O[C@H]12)C(=O)c1ccccc1C3=O,IC50,[35],55 µM
same,IC50,[36],27.5 µM
same,IC50,[37],20 µM
same,IC50,[38],15 µM
CN1C[C@H](c2ccc(Cl)cc2)[C@]2(NC(=O)NC2=O)C12C(=O)Nc1ccc(Br)cc12 (some centres not stated),IC50 at 72 h,[39],11.9 µM
same,IC50,[40],6.6 µM
same,IC50 at 72 h,[41],9.2 µM
same,IC50,[42],24.1 µM
O=C(/C=C1\CC(=O)N(c2ccc(Cl)cc2)C1=O)Nc1ccc(Cl)cc1,IC50,[43],33.5 µM
Cc1ccc2[nH]c3c(c2c1)CC1(C3=O)C(c2cccc3ccccc23)C2CSCN2C12C(=O)Nc1ccccc12 (configuration not stated),IC50,[44],32.6 µM
same,IC50,[45],24.4 µM
COC(=O)c1ccc(C2C(=S)N(c3ccc(C#N)c(C(F)(F)F)c3)C(=O)[C@]23CCOC3)cc1F (some centres not stated),IC50,[46],0.033 µM
same,Ki,[47],0.0056 µM
CCN(CC)C[C@@]1([C@H]2c3ccccc3[C@@H](O)[C@]23C(=O)N(Cc2ccccc2)c2ccccc23)C(=O)N(Cc2ccccc2)c2ccccc21,IC50,[48],18.1 µM
same,IC50,[49],17.7 µM
same,IC50,[50],7.4 µM
O=C1CS/C(=C\C2c3ccccc3Nc3ccccc32)N1N(c1ccccc1)c1ccccc1,IC50,[51],25.9 µM
same,IC50,[52],32.2 µM
CCOC(=O)[C@@H]1N[C@@](CC(=O)OC)(C(=O)OC)C2(C(=O)N(C(=O)OC(C)(C)C)c3ccccc32)[C@H]1c1ccc([N+](=O)[O-])cc1 (some centres not stated),Activity,[53],58.89%
O=C1Nc2ccccc2C12CC(c1cn(S(=O)(=O)c3ccc(Cl)cc3)c3ccccc13)=NN2 (configuration not stated),IC50,[54],19.2 µg/mL
same,IC50,[55],5.8 µg/mL
same,IC50,[56],20.5 µg/mL
CC1CO[C@@]2(O[C@H]3CC4C5CC[C@@H]6C[C@@H](O)CC[C@]6(C)C5CC(=O)[C@]4(C)[C@H]3[C@@H]2C)/C(=C/c2ccccc2)C1 (some centres not stated),IC50,[57],35.7 µM
same,IC50,[58],23.2 µM
same,IC50,[59],19.9 µM
same,IC50,[60],45.3 µM
CN1C[C@H](c2ccc(F)cc2)[C@]2(NC(=O)NC2=O)C12C(=O)Nc1ccccc12 (some centres not stated),IC50 at 72 h,[39],20.8 µM
same,IC50,[40],7.5 µM
same,IC50 at 72 h,[41],14.3 µM
same,IC50,[42],18.3 µM
O=C1NC(=O)C2(Cc3ccccc3N3CCSCC32)C(=O)N1 (configuration not stated),IC50,[61],90.2 µM
same,IC50,[62],49.8 µM
O=C1/C(=C/c2ccccc2)CN(/C=C/c2ccccc2)C[C@@]12[C@H](c1ccccc1)[C@@H](Cc1ccccc1)N[C@]21C(=O)Nc2ccccc21,IC50,[10],19 µM

# Source: ChEMBL document CHEMBL5233269, “Anticancer potential of spirocompounds in medicinal chemistry: A pentennial expedition” (Eur J Med Chem, 2021)
